Measured values published in article PMC8217170, “Phase Ib dose-escalation study of the hypoxia-modifier Myo-inositol trispyrophosphate in patients with hepatopancreatobiliary tumors” (Nature Communications, 2021).

Test: Plasma levels and pharmacokinetics of intravenous ITPP

With `O=P1(O)OC2C3OP(=O)(O)OP(=O)(O)OC3C3OP(=O)(O)OP(=O)(O)OC3C2OP(=O)(O)O1` (stereo not shown) [ITPP, Myo-inositol trispyrophosphate] the “ITPP plasma levels: Concentration” value (cohort 2, patient 5, day 4, hour 0, sample 6_4_1) was 0 µg/mL, the “ITPP plasma levels: Concentration” value (cohort 2, patient 5, day 4, hour 9, sample 6_4_5) was 81.8 µg/mL and the “ITPP plasma levels: Concentration” value (cohort 2, patient 5, day 5, hour 0, sample 6_5_1) was 0 µg/mL. For the same compound, the “ITPP plasma levels: Concentration” value (cohort 2, patient 5, day 5, hour 3, sample 6_5_2) was 90.1 µg/mL, the “ITPP plasma levels: Concentration” value (cohort 2, patient 5, day 5, hour 6, sample 6_5_3) was 107 µg/mL and the “ITPP plasma levels: Concentration” value (cohort 2, patient 5, day 5, hour 8.5, sample 6_5_4) was 81.8 µg/mL. For the same compound, the “ITPP plasma levels: Concentration” value (cohort 2, patient 5, day 5, hour 9, sample 6_5_5) was 62.8 µg/mL, the “ITPP plasma levels: Concentration” value (cohort 2, patient 5, day 5, hour 10, sample 6_5_6) was 38.5 µg/mL and the “ITPP plasma levels: Concentration” value (cohort 2, patient 5, day 6, hour 0, sample 6_6_1) was 0 µg/mL. The “ITPP plasma levels: Concentration” value (cohort 2, patient 5, day 6, hour 9, sample 6_6_5) was 76.4 µg/mL, the “ITPP plasma levels: Concentration” value (cohort 2, patient 5, day 7, hour 0, sample 6_7_1) was 0 µg/mL and the “ITPP plasma levels: Concentration” value (cohort 2, patient 5, day 7, hour 9, sample 6_7_5) was 65.9 µg/mL. For the same compound, the “ITPP plasma levels: Concentration” value (cohort 2, patient 5, day 8, hour 0, sample 6_8_1) was 0 µg/mL, the “ITPP plasma levels: Concentration” value (cohort 2, patient 5, day 8, hour 9, sample 6_8_5) was 73.8 µg/mL and the “ITPP plasma levels: Concentration” value (cohort 2, patient 5, day 9, hour 0, sample 6_9_1) was 0 µg/mL. The “ITPP plasma levels: Concentration” value (cohort 2, patient 5, day 9, hour 3, sample 6_9_2) was 81.2 µg/mL, the “ITPP plasma levels: Concentration” value (cohort 2, patient 5, day 9, hour 6, sample 6_9_3) was 110 µg/mL and the “ITPP plasma levels: Concentration” value (cohort 2, patient 5, day 9, hour 8.5, sample 6_9_4) was 89.6 µg/mL. The “ITPP plasma levels: Concentration” value (cohort 2, patient 5, day 9, hour 9, sample 6_9_5) was 58.7 µg/mL, the “ITPP plasma levels: Concentration” value (cohort 2, patient 6, day 1, hour 0, sample 7_1_1) was 0 µg/mL and the “ITPP plasma levels: Concentration” value (cohort 2, patient 6, day 1, hour 3, sample 7_1_2) was 84.8 µg/mL. The “ITPP plasma levels: Concentration” value (cohort 2, patient 6, day 1, hour 6, sample 7_1_3) was 106 µg/mL, the “ITPP plasma levels: Concentration” value (cohort 2, patient 6, day 1, hour 8.5, sample 7_1_4) was 100 µg/mL and the “ITPP plasma levels: Concentration” value (cohort 2, patient 6, day 1, hour 9, sample 7_1_5) was 77.7 µg/mL. The “ITPP plasma levels: Concentration” value (cohort 2, patient 6, day 1, hour 10, sample 7_1_6) was 55.2 µg/mL, the “ITPP plasma levels: Concentration” value (cohort 2, patient 6, day 2, hour 0, sample 7_2_1) was 0 µg/mL and the “ITPP plasma levels: Concentration” value (cohort 2, patient 6, day 2, hour 9, sample 7_2_5) was 66.6 µg/mL. For the same compound, the “ITPP plasma levels: Concentration” value (cohort 2, patient 6, day 3, hour 0, sample 7_3_1) was 0 µg/mL, the “ITPP plasma levels: Concentration” value (cohort 2, patient 6, day 3, hour 9, sample 7_3_5) was 65.2 µg/mL and the “ITPP plasma levels: Concentration” value (cohort 2, patient 6, day 4, hour 0, sample 7_4_1) was 0 µg/mL. For the same compound, the “ITPP plasma levels: Concentration” value (cohort 2, patient 6, day 4, hour 9, sample 7_4_5) was 67.1 µg/mL, the “ITPP plasma levels: Concentration” value (cohort 2, patient 6, day 5, hour 0, sample 7_5_1) was 0 µg/mL and the “ITPP plasma levels: Concentration” value (cohort 2, patient 6, day 5, hour 3, sample 7_5_2) was 78.6 µg/mL. For the same compound, the “ITPP plasma levels: Concentration” value (cohort 2, patient 6, day 5, hour 6, sample 7_5_3) was 98 µg/mL, the “ITPP plasma levels: Concentration” value (cohort 2, patient 6, day 5, hour 8.5, sample 7_5_4) was 82.7 µg/mL and the “ITPP plasma levels: Concentration” value (cohort 2, patient 6, day 5, hour 9, sample 7_5_5) was 41.4 µg/mL. For the same compound, the “ITPP plasma levels: Concentration” value (cohort 2, patient 6, day 5, hour 10, sample 7_5_6) was 40.6 µg/mL, the “ITPP plasma levels: Concentration” value (cohort 2, patient 6, day 6, hour 0, sample 7_6_1) was 0 µg/mL and the “ITPP plasma levels: Concentration” value (cohort 2, patient 6, day 6, hour 9, sample 7_6_5) was 60.1 µg/mL. The “ITPP plasma levels: Concentration” value (cohort 2, patient 6, day 7, hour 0, sample 7_7_1) was 0 µg/mL, the “ITPP plasma levels: Concentration” value (cohort 2, patient 6, day 7, hour 9, sample 7_7_5) was 72.5 µg/mL and the “ITPP plasma levels: Concentration” value (cohort 2, patient 6, day 8, hour 0, sample 7_8_1) was 0 µg/mL. The “ITPP plasma levels: Concentration” value (cohort 2, patient 6, day 8, hour 9, sample 7_8_5) was 75.7 µg/mL, the “ITPP plasma levels: Concentration” value (cohort 2, patient 6, day 9, hour 0, sample 7_9_1) was 0 µg/mL and the “ITPP plasma levels: Concentration” value (cohort 2, patient 6, day 9, hour 3, sample 7_9_2) was 84.2 µg/mL. The “ITPP plasma levels: Concentration” value (cohort 2, patient 6, day 9, hour 6, sample 7_9_3) was 116 µg/mL, the “ITPP plasma levels: Concentration” value (cohort 2, patient 6, day 9, hour 8.5, sample 7_9_4) was 105 µg/mL and the “ITPP plasma levels: Concentration” value (cohort 2, patient 6, day 9, hour 9, sample 7_9_5) was 82 µg/mL. For the same compound, the “ITPP plasma levels: Concentration” value (cohort 2, patient 6, day 9, hour 10, sample 7_9_6) was 60.5 µg/mL, the “ITPP plasma levels: Concentration” value (cohort 2, patient 7, day 1, hour 0, sample 8_1_1) was 0 µg/mL and the “ITPP plasma levels: Concentration” value (cohort 2, patient 7, day 1, hour 3, sample 8_1_2) was 81.8 µg/mL. The “ITPP plasma levels: Concentration” value (cohort 2, patient 7, day 1, hour 6, sample 8_1_3) was 117 µg/mL, the “ITPP plasma levels: Concentration” value (cohort 2, patient 7, day 1, hour 8.5, sample 8_1_4) was 100 µg/mL and the “ITPP plasma levels: Concentration” value (cohort 2, patient 7, day 1, hour 9, sample 8_1_5) was 79.1 µg/mL. The “ITPP plasma levels: Concentration” value (cohort 2, patient 7, day 1, hour 10, sample 8_1_6) was 67.7 µg/mL.
